Experimental findings from patent US20070032520A1, “Indol-5-yl sulfonamide derivatives, their preparation and their use 5-ht-6 as modulators” (Laboratorios Del Dr. Esteve S.A, priority 2003, published 2007) are described below.

With `CN(C)CCn1ccc2cc(NS(=O)(=O)c3cccc(Br)c3)ccc21` [Example 13, N-[1-(2-dimethylaminoethyl)-1H-indole-5-yl]-3-bromobenzenesulfonamide], the melting point is 114 to 116 °C.
As to `CN(C)CCn1ccc2cc(NS(=O)(=O)c3cccc4ccccc34)ccc21` [Example 3, N-[1-(2-dimethylaminoethyl)-1H-indole-5-yl]-naphthalene-1-sulfonamide], the melting point is 179 to 181 °C.
`CN(C)CCn1ccc2cc(NS(=O)(=O)c3cccc4c(Cl)cccc34)ccc21` [Example 4, N-[1-(2-dimethylaminoethyl)-1H-indole-5-yl]-5-chloronaphthalene-1-sulfonamide]: the melting point is 172 to 174 °C.
In turn, `CN(C)CCn1ccc2cc(NS(=O)(=O)c3c(Cl)nc4sccn34)ccc21` [Example 11, N-[1-(2-dimethylaminoethyl)-1H-indole-5-yl]-6-chloroimidazo[2,1-b]thiazole-5-sulfonamide] showed a melting point of 50 to 52 °C.
Consider `CN(C)CCn1ccc2cc(NS(=O)(=O)c3cc(Cl)c(Cl)s3)ccc21` [Example 20, N-[1-(2-dimethylaminoethyl)-1H-indole-5-yl]-4,5-dichlorothiophene-2-sulfonamide], for which the melting point was 120 to 123 °C.
For `CN(C)CCn1ccc2cc(NS(=O)(=O)c3cc(Cl)cc(Cl)c3)ccc21` [Example 12, N-[1-(2-dimethylaminoethyl)-1H-indole-5-yl]-3,5-dichlorobenzenesulfonamide], the melting point fell in the range of 124 to 126 °C.
